The results in this text go back to patent US11091749B2, “Deimmunized lysostaphin and methods of use” (TRUSTEES OF DARTMOUTH COLLEGE, priority 2014, dated 2021).

Positions count from the first letter of the chain named. Names may count otherwise. Where no end group is shown, it is not given here.

The nature of series [1]: Thermostability by differential scanning fluorimetry. It counts as physicochemical. The note with it: SYPRO Orange, PBS. Here is the method:
The relative thermostability of the lysostaphin variants was determined by differential scanning fluorimetry, as previously described (Niesen, et al. (2007) Nat. Protocols 2:2212-2221). Proteins and SYPRO Orange were diluted in PBS (final concentrations of 100 μg/ml and 5× in 20 μl reaction volume, respectively), and fluorescence was quantified at 1-degree increments from 25 to 94° C. using an Applied Biosystems ABI 7500 fast real-time PCR system. The reactions were performed using PCR Plates for Fast Thermocyclers (VWR; Radnor, Pa.). Fluorescence was quantified using the preset TAMRA parameters. Melting temperatures were determined by data analysis with the ‘DSF Analysis v3.0.xlsx’ EXCEL sheet and GraphPad Prism v.6.02 software.
A general note: DSF heats the sample and reads unfolding from a dye or from intrinsic fluorescence.

The next series deals with S. aureus SA113. Description: MIC assay. It counts as cell-based, Staphylococcus aureus. The note with it: S. aureus SA113, purified enzyme. As to the method:
The MICs of wild-type lysostaphin and its variants were determined by adding 2-fold serial dilutions of enzymes into wells of a polypropylene 96-well plate (Costar 3879) containing ˜40,000 S. aureus SA113 (or S. aureus 6445, 3425-1, 3425-3) cells in Muller Hinton broth (BD) supplemented with 2% NaCl and 0.1% bovine serum albumin, yielding a total volume of 100 μl. Plates were grown overnight at 37° C. with shaking at 900 rpm on an Orbit P4 orbital shaker (Labnet; Edison, N.J.). […] The assay was performed in triplicate for each enzyme.

The next series deals with S. aureus cells. Description: Lytic assay using purified protein (SYTOX kinetic assay). The conditions noted are these: 200 ng purified enzyme. It counts as cell-based, Staphylococcus aureus. Here is the method:
S. aureus cells were grown either to mid-log or to saturation in tryptic soy broth (TSB) at 37° C. with shaking. The cells were harvested by centrifugation and washed once in phosphate buffered saline (PBS: 2.7 mM KCl, 1.5 mM KH2PO4, 8.9 mM Na2HPO4, 136.9 mM NaCl, pH 7.4). The assay was performed in 96-well, black, clear bottom plates from Greiner Bio-One (Monroe, N.C.). The final (250 μl) reaction was composed of 10 μl of P. pastoris culture supernatant, S. aureus cells at OD600=1.5, and 5 μM SYTOX Green (Thermo Fisher Scientific; Waltham, Mass.), all in PBS. Data were collected using SPECTRAMAX GEMINI Fluorescence Microplate Reader (Molecular Devices; Sunnyvale, Calif.) using an excitation/emission of 504/523 nm, and rates were determined from the slope of the steepest linear portion of the trace. Each assay was performed with 500 ng of commercially-sourced lysostaphin (ssLys) as an internal control.
The activity of purified lysostaphin variants was examined using the SYTOX kinetic assay as previously described in Chapter 2, Section 3.2.6. 200 ng of purified enzyme (instead of culture supernatant) was used in each reaction.

A further series addresses T1, DRB1*1501 (Homo sapiens, UniProt P01903+P01911).
T1 construct: purchased Benaroya Research Institute (Seattle, Wash.)
Description: MHC II competition binding assay. As to the method:
MHC Binding Assays. […] Briefly, 100 nM biotinylated control peptides composed of known peptide antigens for each MHC II allele were incubated in polypropylene 384-well plates with 50 nM purified recombinant MHC II protein and serial dilutions of LST or variant peptide fragments (100 μM to 10 nM). Peptide-MHC II complexes were captured from equilibrated solutions using the conformation specific anti-HLA-DR antibody L243 coated on high binding ELISA plates. Bound control peptide was quantified using the DELFIA streptavidin-Europium conjugate and time resolved fluorescence (SpectraMax Gemini Fluorescence Microplate Reader).

The next series has as its target DRB1*1101 (Homo sapiens, UniProt P01903+P01911, A100R/A169T/A87E/I96F/K41T/L162R/M171V/P40S/Q125H/Q178H/Q39Y/Q99D/R42S/S66Y/T262R/V115G/W38E). Description: MHC II competition binding assay. Here is the method: (§1) MHC Binding Assays. MHC II competition binding assays were performed using a 384-well high throughput assay as previously described (Salvat, et al. (2014) supra). Binding assays were performed for the eight alleles: DRB1*0101, 0301, 0401, 0701, 0801, 1101, 1301, and 1501. Briefly, 100 nM biotinylated control peptides composed of known peptide antigens for each MHC II allele were incubated in polypropylene 384-well plates with 50 nM purified recombinant MHC II protein and serial dilutions of LST or variant peptide fragments (100 μM to 10 nM). Peptide-MHC II complexes were captured from equilibrated solutions using the conformation specific anti-HLA-DR antibody L243 coated on high binding ELISA plates. Bound control peptide was quantified using the DELFIA streptavidin-Europium conjugate and time resolved fluorescence (SpectraMax Gemini Fluorescence Microplate Reader).

The target of a further series is T2, DRB1*0301 (Homo sapiens, UniProt P01903+P01911, A100K/A102G/A103R/A169T/F55Y/I96L/K41T/L162R/M171V/P40S/Q125H/Q178H/Q39Y/R42S/S66N/T106N/T262R/W38E/Y61H).
T2 construct: purchased Benaroya Research Institute (Seattle, Wash.)
The experiment in a line: MHC II competition binding assay. Here is the method: as §1

In a further series the target is DRB1*1301 (Homo sapiens, UniProt P01903+P01911, A100E/A169T/K41T/L162R/M171V/P40S/Q125H/Q178H/Q39Y/Q99D/R42S/S66N/T262R/W38E/Y61H). Description: MHC II competition binding assay. As to the method: as §1
The target in the next series is DRB1*0701 (Homo sapiens, UniProt P01903+P01911, A100R/A102G/A103Q/D57E/D86V/E43K/F76Y/K127E/L162R/M171V/P40G/Q125H/Q99D/R33Q/R42Y/R54Q/S133A/S66F/T210M/V115G/Y107V/Y59L/Y89S). The experiment in a line: MHC II competition binding assay. As to the method: as §1
Another series concerns the target T3, DRB1*0401 (Homo sapiens, UniProt P01903+P01911, A100K/A169T/F76Y/I96L/K127E/L162R/M171V/N62H/P40V/Q125Y/R42H/S133A/S149N/S66Y/V115G/V209L/W38E).
T3 construct: purchased Benaroya Research Institute (Seattle, Wash.)
The experiment in a line: MHC II competition binding assay. As to the method:
as §1

A further series concerns the target T4, DRB1*0101 (Homo sapiens, UniProt P01903+P01911, A100R/D57E/F55L/F60I/F76Y/I96L/L162R/M171V/P40L/Q125E/R42F/V115G/Y59C).
T4 construct: purchased Benaroya Research Institute (Seattle, Wash.)
The experiment in a line: MHC II competition binding assay. As to the method: as §1

In the next series the target is DRB1*0801 (Homo sapiens, UniProt P01903+P01911, A100R/A103L/A169T/D86S/F76Y/H45Y/I96F/K41T/L162R/M171V/P40S/Q125H/Q178H/Q39Y/Q99D/R218S/R42G/S66Y/V115G/W38E). Description: MHC II competition binding assay. As to the method:
as §1

In the case of “Flex 14: lysostaphin variant I41E, S122D; two mutation design shared between rigid and flexible designs”, the Tm in series [1] was 58.6 °C. Moreover, in the series with S. aureus SA113, the MIC (in general, the lowest concentration found to suppress growth) was 0.0833 µg/mL. Moreover, the “% Wild-Type Activity” value with S. aureus cells is 69%.
As for HLHFQTMVNDFSNPTAQ [Peptide 18_22], the IC50 (commonly the point on the concentration scale where inhibition reaches its midpoint) is below 0.01 µM on DRB1*1501; below 0.01 µM at DRB1*1101; 28.2 µM on DRB1*0301; above 250 µM on DRB1*1301; 111 µM on DRB1*0701; below 0.01 µM at DRB1*0401. The values for the IC50 on DRB1*0101 and on DRB1*0801 were below 0.01 µM and above 250 µM, respectively.
For HLHFQRMVNDFSNPTAQ [Peptide S122D], the IC50 was below 0.01 µM on DRB1*1501; below 0.01 µM on DRB1*1101; 9.42 µM on DRB1*0301; above 250 µM at DRB1*1301; above 250 µM at DRB1*0701; below 0.01 µM on DRB1*0401. Further, the IC50 is below 0.01 µM on DRB1*0101 and 150 µM at DRB1*0801.
For the molecule HLHFQTMVNSFSNPTAQ [Peptide R118T], the IC50 on DRB1*1501 was below 0.01 µM; on DRB1*1101, below 0.01 µM; at DRB1*0301, 68.4 µM; at DRB1*1301, above 250 µM; at DRB1*0701 it was 23.1 µM; at DRB1*0401, below 0.01 µM. The results for the IC50 at DRB1*0101 and on DRB1*0801 were below 0.01 µM and 57.7 µM, respectively.
For the molecule HLHFQTMVNDFGNPTAQ [Peptide 182224], the IC50 is 0.42 µM on DRB1*1501; 14.1 µM at DRB1*1101; 133 µM at DRB1*0301; above 250 µM on DRB1*1301; above 250 µM on DRB1*0701; 7.52 µM on DRB1*0401. Besides, the IC50 on DRB1*0101 is 7.43 µM; at DRB1*0801 it was above 250 µM.
HLHFQRMVGDFSNPTAQ [Peptide 21_22]: the 50% inhibitory concentration (IC50) on DRB1*1501 was below 0.01 µM; at DRB1*1101 it was 28.5 µM; on DRB1*0301 it was 77.4 µM; at DRB1*1301, above 250 µM; at DRB1*0701 it was above 250 µM; on DRB1*0401 it was below 0.01 µM. Further, the IC50 on DRB1*0101 is below 0.01 µM; on DRB1*0801 it was 210 µM.

B1: Flex 8: lysostaphin variant N12G, I41E, L83M, I99Q, N121G, S122D (protein, UniProt P10547 248-493, looked up, variant N12G I41E L83M I99Q N121G S122D)
Lysostaphin: AATHEHSAQWLGNYKKGYGYGPYPLGINGGMHYGVDFFMNEGTPVKAISSGKIVEAGWSNYGGGNQIGLIENDGVHRQWYMHMSKYNVKVGDYVKAGQQIGWSGSTGYSTAPHLHFQRMVGDFSNSTAQDPMPFLKSAGYGKAGGTVTPTPNTGWKTNKYGTLYKSESASFTPNTDIITRTTGPFRSMPQSGVLKAGQTIHYDEVMKQDGHVWVGYTGNSGQRIYLPVRTWNKSTNTLGVLWGTIK
With B1, in series [1], the Tm was 52.9 °C. The MIC against S. aureus SA113 was 0.2083 µg/mL. In the series with S. aureus cells, the “% Wild-Type Activity” value worked out at 60%.

B2: Flex 1: lysostaphin variant I41E, I99Q, S122D (SEQ ID NO:32) (protein)
chain: B1 Lysostaphin with G12N, K46H, M83L, Q99I, R118T, G121N, S124G, S126P
As for B2, the Tm in series [1] amounted to 55.4 °C. Also, the MIC against S. aureus SA113 was found to be 0.0833 µg/mL. Also, the “% Wild-Type Activity” value in the series on S. aureus cells stood at 63%.

B3: Flex 10: lysostaphin variant N12G, I41E, N121G, S122D (protein, UniProt P10547 248-493, looked up, variant N12G I41E N121G S122D)
Lysostaphin: B1 Lysostaphin with M83L, Q99I
B3: in series [1], the Tm came to 57.5 °C. The molecule also came in with an MIC against S. aureus SA113 of 0.0729 µg/mL. Also, the “% Wild-Type Activity” value in the series on S. aureus cells was 62%.

B4: Flex 6: lysostaphin variant N12G, I41E, I99Q, N121G, S122D (protein, UniProt P10547 248-493, looked up, variant N12G I41E I99Q N121G S122D)
Lysostaphin: B1 Lysostaphin with M83L
B4: the Tm in series [1] turned out to be 54.1 °C. In the series with S. aureus SA113, the MIC was 0.2083 µg/mL. For the same molecule, the “% Wild-Type Activity” value with S. aureus cells is reported as 58%.
